Test results from paper PMC8388802, “Study on the Structure-Activity Relationship of an Antimicrobial Peptide, Brevinin-2GUb, from the Skin Secretion of Hylarana guentheri” (Antibiotics, 2021).
≈ marks a conversion by molar mass, not a printed value. Where a SMILES comes first, the peptide text is derived from it.

Columns and labels:
[1] = tested on: P. aeruginosa (ATCC CRM 9027); type: cell-based, Pseudomonas aeruginosa
Procedure: (§1) The method of antimicrobial assay is based on the Methods for Dilution Antimicrobial Susceptibility Tests for Bacteria that Grow Aerobically from the Clinical and Laboratory Standards Institute (CLSI).The antimicrobial activities of peptides were evaluated against Gram-positive bacteria S. aureus (ATCC 6538), MRSA (NCTC 12493), E. faecalis (NCTC 12493), Gram-negative bacteria E. coli (ATCC CRM 8739), K. pneumoniae (ATCC 43816), P. aeruginosa (ATCC CRM 9027), yeast C. albicans (ATCC CRM 10231) and clinical isolates MRSA (B042 V2E1 A), E. coli (ATCC BAA-2340), K. pneumoniae (ATCC BAA-1705), P. aeruginosa (B004 V2S2 B).
(§2) At the first stage of the assay, 20 μL bacteria were cultured in 100 mL Mueller Hinton Broth (MHB) or Yeast Extract–Peptone–Dextrose broth (YPD-B), respectively, and was incubated overnight. Then, microorganisms were subcultured in 20 mL fresh MHB or YPD-B to achieve cultures in the logarithmic phase (1 × 10^8 CFU/mL), which can be verified by optical density (OD) (The OD of Gram-positive bacteria is 0.23, OD of Gram-negative bacteria is 0.4, and OD of yeast is 0.15), and viable cell counts. Then, the medium was used to dilute the cultures to specific cell densities (Gram-negative and Gram-positive bacteria: 5 × 10^5 CFU/mL; yeast: 1 × 10^6 CFU/mL), which were the final concentrations of bacterial suspensions used in the assay. The peptides were dissolved in DMSO to reach a final concentration of 512 µM. A series of two-fold dilutions ranging from 512 µM to 1 µM were dosed in the 96-well plates.
(§3) Antimicrobial assays were conducted in 96-well plates, which were divided into five groups, including a negative control group (PBS), a positive control group (20 μg/mL norfloxacin for bacteria and 10 μg/mL amphotericin B for yeast), vehicle control (1% DMSO), blank control (MHB or YPD-B), and a peptide group. Each microorganism had five repetitions, and each well contained 1 µL corresponding solution and 99 µL culture. After incubation at 37 °C overnight, the absorbance of each well was tested by a microplate reader (EL808, Biolise BioTek Winooski, Minneapolis, USA) under a 550 nm wavelength. The MIC is the lowest concentration at which no bacterial growth can be observed.
(§4) The next day, 10 µL of every clear well was taken out to be cultured on a Mueller Hinton Agar (MHA) plate and incubated at 37 °C for 16–20 h. The MBC is the lowest concentration without any bacterial colonies, which means at this concentration, the peptide reduces the viability of the pathogen by more than 99.9%.

[2] = tested on: P. aeruginosa (B004 V2S2 B); type: cell-based, Pseudomonas aeruginosa
Procedure: as §1, §2, §3, §4

[3] = tested on: K. pneumoniae (ATCC 43816); type: cell-based, Klebsiella pneumoniae
Procedure: as §1, §2, §3, §4

[4] = tested on: K. pneumoniae (ATCC BAA-1705); type: cell-based, Klebsiella pneumoniae
Procedure: as §1, §2, §3, §4

[5] = tested on: S. aureus (ATCC 6538) biofilm; type: cell-based, Staphylococcus aureus; settings: ATCC 6538, 24 h
Procedure: (§5) The anti-biofilm activities of the peptides against S. aureus (ATCC 6538), MRSA (NCTC 12493), E. faecalis (NCTC 12493), E. coli (ATCC CRM 8739), K. pneumoniae (ATCC 43816), and P. aeruginosa (ATCC CRM 9027) were evaluated.
(§6) The bacteria were inoculated in a different medium (Gram-positive bacteria were in TSB and Gram-negative bacteria were in LB) overnight, and the subculture was conducted in the same medium. When the bacteria reached a specific density, 100 µL of the dilution was added to each well of the 96-well microplate. Then 1 µL of peptide at a series of concentrations, the same concentration in the antimicrobial assay, were added into the well together with the bacteria. The plates were put into a moist shaking incubator with a speed of 200 rpm, and the temperature was set at 37 ℃. After a 24-h incubation, the liquid in the wells was aspirated, and each was washed twice by 100 µL PBS. One hundred µL of methanol were added into each well to stabilise the biofilm. After air-drying, 100 µL crystal violet was used to dye the biofilm, and they were dissolved in the 100 µL glacial acidic acid after drying. The solutions were transferred to a new microplate, and the absorbance of each well was tested by a microplate reader (EL808, Biolise BioTek Winooski, Minneapolis, MN, USA) at 595 nm wavelength. MBIC was the minimum concentration of the peptide showing no biofilm formation.
The bacteria were inoculated in a different medium (Gram-positive bacteria were in TSB and Gram-negative bacteria were in LB) overnight, and the subculture was conducted in the same medium. When the bacteria reached a specific density, 100 µL of the dilution was added to each well of the 96-well microplates. The plates were put into a moist shaking incubator with a speed of 200 rpm and the temperature was 37 ℃. After a 24 h incubation, the liquid in the wells was aspirated and they were washed twice by 100 µL PBS of each well. The peptides with the same concentrations were diluted in the corresponding medium and 100 µL were added into each well. After a 24-h incubation, the liquid in the wells was aspirated and they were washed twice by 100 µL PBS. One hundred µL of methanol were added into the wells to stabilise the biofilms. After being air-dried, 100 µL crystal violet was used to dye the biofilm, and they were dissolved in the 100 µL glacial acidic acid after drying. The solutions were transferred to a new microplate, and the absorbance of each well was tested by a microplate reader (EL808, Biolise BioTek Winooski, Minneapolis, USA) at 595 nm wavelength.

E. coli (ATCC BAA-2340) = type: cell-based, Escherichia coli
Procedure: as §1, §2, §3, §4

[6] = tested on: MRSA (NCTC 12493) biofilm; type: cell-based, Methicillin-resistant Staphylococcus aureus; settings: NCTC 12493, 24 h
Procedure: as §5, §6
The bacteria were inoculated in a different medium (Gram-positive bacteria were in TSB and Gram-negative bacteria were in LB) overnight, and the subculture was conducted in the same medium. When the bacteria reached a specific density, 100 µL of the dilution was added to each well of the 96-well microplates. The plates were put into a moist shaking incubator with a speed of 200 rpm and the temperature was 37 ℃. […] The solutions were transferred to a new microplate, and the absorbance of each well was tested by a microplate reader (EL808, Biolise BioTek Winooski, Minneapolis, USA) at 595 nm wavelength.

[7] = tested on: wax moth (Galleria mellonella); test: Toxicity of peptides to waxworms; type: in vivo; settings: uninfected waxworms, 7.5, 15 and 30 mg/kg, injection

## CC[C@H](C)[C@H](NC(=O)[C@@H](NC(=O)CN)C(C)C)C(=O)N[C@H](C(=O)N[C@@H](CC(=O)O)C(=O)N[C@H](C(=O)N[C@@H](CC(C)C)C(=O)N[C@@H](CCCCN)C(=O)NCC(=O)N[C@@H](C)C(=O)N[C@@H](C)C(=O)N[C@@H](CCCCN)C(=O)N[C@H](C(=O)N[C@H](C(=O)N[C@@H](C)C(=O)N[C@@H](C)C(=O)N[C@@H](CCC(=O)O)C(=O)N[C@@H](CC(C)C)C(=O)N[C@@H](CC(C)C)C(=O)N[C@@H](CCCNC(=N)N)C(=O)N[C@@H](CCCCN)C(=O)N[C@@H](C)C(=O)N[C@@H](Cc1c[nH]cn1)C(N)=O)C(C)C)[C@@H](C)O)[C@@H](C)O)[C@@H](C)CC [tB2U] (H-GVIIDTLKGAAKTVAAELLRKAH-NH2)
[1]
  MBC: >512 µM
  MIC: >512 µM
[2]
  MBC: >512 µM
  MIC: >512 µM
[3]
  MBC: > 512 µM
  MIC: 512 µM (≈ 1220 µg/mL)
[4]
  MBC: >512 µM
  MIC: >512 µM
[5]
  MBEC: >512 µM
  MBIC: >512 µM

## CC[C@H](C)[C@H](NC(=O)[C@@H](NC(=O)CN)C(C)C)C(=O)N[C@H](C(=O)N[C@@H](CCCCN)C(=O)N[C@H](C(=O)N[C@@H](CC(C)C)C(=O)N[C@@H](CCCCN)C(=O)NCC(=O)N[C@@H](C)C(=O)N[C@@H](C)C(=O)N[C@@H](CCCCN)C(=O)N[C@H](C(=O)N[C@H](C(N)=O)C(C)C)[C@@H](C)O)[C@@H](C)O)[C@@H](C)CC [Peptide 14-tB2U-K] (H-GVIIKTLKGAAKTV-NH2)
E. coli (ATCC BAA-2340)
  MBC: >512 µM
  MIC: >512 µM
[1]
  MBC: >512 µM
  MIC: >512 µM
[2]
  MBC: >512 µM
  MIC: >512 µM
[3]
  MBC: >512 µM
  MIC: >512 µM
[4]
  MBC: >512 µM
  MIC: >512 µM
[5]
  MBEC: >512 µM
  MBIC: >512 µM

## CC[C@H](C)[C@H](NC(=O)[C@@H](NC(=O)CN)C(C)C)C(=O)N[C@H](C(=O)N[C@@H](CCCCN)C(=O)N[C@H](C(=O)N[C@@H](CC(C)C)C(=O)N[C@@H](CCCCN)C(=O)NCC(=O)N[C@@H](C)C(=O)N[C@@H](C)C(=O)N[C@@H](CCCCN)C(=O)N[C@H](C(=O)N[C@H](C(=O)N[C@@H](C)C(=O)N[C@@H](C)C(=O)N[C@@H](CCCCN)C(=O)N[C@@H](CC(C)C)C(=O)N[C@@H](CC(C)C)C(N)=O)C(C)C)[C@@H](C)O)[C@@H](C)O)[C@@H](C)CC [tB2U-K] (H-GVIIKTLKGAAKTVAAKLL-NH2)
E. coli (ATCC BAA-2340)
  MBC: 16 µM (≈ 30.3 µg/mL)
  MIC: 16 µM (≈ 30.3 µg/mL)
[1]
  MBC: 32 µM (≈ 60.6 µg/mL)
  MIC: 32 µM (≈ 60.6 µg/mL)
[2]
  MBC: >512 µM
  MIC: >512 µM
[3]
  MBC: 128 µM (≈ 242 µg/mL)
  MIC: 128 µM (≈ 242 µg/mL)
[4]
  MBC: 128 µM (≈ 242 µg/mL)
  MIC: 128 µM (≈ 242 µg/mL)
[5]
  MBEC: > 512 µM
  MBIC: 16 µM
[6]
  MBIC: 16 µM
[7]
  survival rate of waxworms treated with peptide: 100%

## CC[C@H](C)[C@H](NC(=O)[C@@H](NC(=O)CN)C(C)C)C(=O)N[C@H](C(=O)N[C@@H](CCCCN)C(=O)N[C@H](C(=O)N[C@@H](CC(C)C)C(N)=O)[C@@H](C)O)[C@@H](C)CC [Peptide 7-tB2U-K] (H-GVIIKTL-NH2)
E. coli (ATCC BAA-2340)
  MBC: >512 µM
  MIC: >512 µM
[1]
  MBC: >512 µM
  MIC: >512 µM
[2]
  MBC: >512 µM
  MIC: >512 µM
[3]
  MBC: >512 µM
  MIC: >512 µM
[4]
  MBC: >512 µM
  MIC: >512 µM
[5]
  MBEC: 512/>512 μM
  MBIC: 512/>512 μM

## CC[C@H](C)[C@H](NC(=O)[C@@H](NC(=O)CN)C(C)C)C(=O)N[C@H](C(=O)N[C@@H](CCCCN)C(=O)N[C@@H](CCCCN)C(=O)N[C@@H](CC(C)C)C(=O)N[C@@H](CCCCN)C(=O)NCC(=O)N[C@@H](C)C(=O)N[C@@H](C)C(=O)N[C@@H](CCCCN)C(=O)N[C@@H](CCCCN)C(=O)N[C@H](C(=O)N[C@@H](C)C(=O)N[C@@H](C)C(=O)N[C@@H](CCCCN)C(=O)N[C@@H](CC(C)C)C(=O)N[C@@H](CC(C)C)C(N)=O)C(C)C)[C@@H](C)CC [tB2U-6K] (H-GVIIKKLKGAAKKVAAKLL-NH2)
E. coli (ATCC BAA-2340)
  MBC: 8 µM (≈ 15.6 µg/mL)
  MIC: 8 µM (≈ 15.6 µg/mL)
[1]
  MBC: 16 µM (≈ 31.2 µg/mL)
  MIC: 16 µM (≈ 31.2 µg/mL)
[2]
  MBC: 64 µM (≈ 125 µg/mL)
  MIC: 64 µM (≈ 125 µg/mL)
[3]
  MBC: 32 µM (≈ 62.4 µg/mL)
  MIC: 32 µM (≈ 62.4 µg/mL)
[4]
  MBC: 128 µM (≈ 249 µg/mL)
  MIC: 128 µM (≈ 249 µg/mL)
[5]
  MBEC: > 512 µM
  MBIC: 64 µM
[6]
  MBIC: 32 µM
[7]
  survival rate of waxworms treated with peptide: 100%

## CC[C@H](C)[C@H](NC(=O)[C@@H](NC(=O)CN)C(C)C)C(=O)N[C@H](C(=O)N[C@@H](CC(=O)O)C(=O)N[C@H](C(=O)N[C@@H](CC(C)C)C(=O)N[C@@H](CCCCN)C(=O)NCC(=O)N[C@@H](C)C(=O)N[C@@H](C)C(=O)N[C@@H](CCCCN)C(=O)N[C@H](C(=O)N[C@H](C(=O)N[C@@H](C)C(=O)N[C@@H](C)C(=O)N[C@@H](CCC(=O)O)C(=O)N[C@@H](CC(C)C)C(=O)N[C@@H](CC(C)C)C(N)=O)C(C)C)[C@@H](C)O)[C@@H](C)O)[C@@H](C)CC [tB2U-α] (H-GVIIDTLKGAAKTVAAELL-NH2)
E. coli (ATCC BAA-2340)
  MBC: >512 µM
  MIC: >512 µM
[1]
  MBC: >512 µM
  MIC: >512 µM
[2]
  MBC: >512 µM
  MIC: >512 µM
[3]
  MBC: >512 µM
  MIC: >512 µM
[4]
  MBC: >512 µM
  MIC: >512 µM
[5]
  MBEC: >512 µM
  MBIC: >512 µM
